# Measurements reported in paper PMC11909988 (BMC Cancer, 2025).
# “Also recorded” adds a separate entry of the source.
# Legend:
# [1] = test system: IDH1-R132H mutant U87MG cells; assay: FRET imaging of D2HGlo cellular probes in IDH1 mutant glioma cells; type: cell-based, human
# [2] = test system: IDH1 wildtype U87MG cells; assay: FRET imaging of D2HGlo cellular probes in IDH1 wildtype glioma cells; type: cell-based, human; details: for acute change of Cyto-D2HGlo FRET ratio: approximately 5.5 min
# [3] = test system: IDH1-R132H mutant U87MG cells; assay: D-2-HG in cell culture supernatant measured with D2HGlo, mutant cells; type: cell-based, human; details: 48 h
# D2HGlo = D2HGlo (Achromobacter denitrificans, UniProt A0A6N0JVZ6); assay: Ligand binding and selectivity of purified D2HGlo; details: for response of D2HGlo (FRET ratio) to metabolite: concentrations up to 100 µM
# mutant IDH1 = details: newly diagnosed and advanced cancer; cited from earlier work
# Sequence of D2HGlo (A0A6N0JVZ6 1-238, other chains not shown): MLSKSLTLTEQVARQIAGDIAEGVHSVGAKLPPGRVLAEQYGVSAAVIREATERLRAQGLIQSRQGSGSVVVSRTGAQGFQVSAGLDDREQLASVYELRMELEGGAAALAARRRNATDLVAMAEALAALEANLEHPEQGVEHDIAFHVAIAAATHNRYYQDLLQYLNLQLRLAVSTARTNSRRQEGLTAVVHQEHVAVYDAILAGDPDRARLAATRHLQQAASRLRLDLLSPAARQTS
structure (smiles),measurement,setting,value
"O=CC[C@@H](O)[C@H](O)[C@H](O)CO [2-DG, 2-Deoxy-D-glucose]",acute change of Cyto-D2HGlo FRET ratio,"[1]; 2-DG 10 mM, approximately 5.5 min",reduced the FRET ratio
same,acute change of Cyto-D2HGlo FRET ratio,[2]; 2-DG 10 mM,unaffected
same,concentration of D-2-HG in the supernatant,[3]; 2-DG 10 mM,reduced to levels comparable to untreated wildtype cells
O=C(O)CN(CCN(CC(=O)O)CC(=O)O)CC(=O)O [EDTA],effect on D-2-HG induced FRET response of D2HGlo,D2HGlo; 1 mM EDTA in titration buffer,prevents D-2-HG induced changes to FRET ratio
CN(C)c1ccc(C2Nc3ccc4ccccc4c3C3=C2C(=O)CC(C)(C)C3)cc1Br (stereo not drawn) [Compound 968],acute change of Cyto-D2HGlo FRET ratio,"[1]; Compound 968 1 µM, approximately 5.5 min",did not elicit any changes
same,acute change of Cyto-D2HGlo FRET ratio,[2]; Compound 968 1 µM,did not elicit any changes
same,D-2-HG accumulation in cell culture supernatants,"[3]; Compound 968 1 µM, wildtype and mutant cells (Fig. 5d)",nor did it effect D-2-HG accumulation
N#Cc1ccnc(N2C(=O)CC[C@H]2C(=O)N(c2cncc(F)c2)[C@H](C(=O)NC2CC(F)(F)C2)c2ccccc2Cl)c1 [AG-120],2-HG levels in patients,mutant IDH1,reduction of 2-HG to levels resembling those seen in healthy populations
same,"average FRET ratio of Cyto-, Nuc- and Mito-D2HGlo (D-2-HG level)","[1]; AG-120 3 µM, 48 h",reduced the average FRET ratio in all three compartments in IDH1 mutant cells to levels comparable with IDH1 wildtype cells; also recorded: decrease to levels resembling those found in IDH1 wildtype cells
same,acute change of Cyto-D2HGlo FRET ratio,"[1]; AG-120 10 μM, 15 min following drug addition",did not result in acute changes
same,D-2-HG levels (FRET ratio),"[2]; AG-120 3 µM, 48 h",no effect
same,D-2-HG concentration of supernatant,[3]; AG-120 3 µM,2.88 ± 0.59 µM
"N[C@@H](CCC(=O)O)C(=O)O [Glutamate, L-glutamic acid]",response of D2HGlo (FRET ratio) to metabolite,D2HGlo,did not respond
"C[C@H](O)C(=O)[O-].[Na+] [Lactate, sodium L-lactate]",response of D2HGlo (FRET ratio) to metabolite,D2HGlo,did not respond
"CC(=O)C(=O)O [Pyruvate, Sodium pyruvate]",response of D2HGlo (FRET ratio) to metabolite,D2HGlo,did not respond
